Assay results reported in ChEMBL document CHEMBL6121057, “Discovery of an Orally Bioavailable STING Inhibitor with In Vivo Anti-Inflammatory Activity in Mice with STING-Mediated Inflammation” (J Med Chem, 2025).

Experiments:
[1] = Metabolic stability in human liver microsomes assessed as half life; assay type: ADME, Microsome
[2] = Metabolic stability in human liver microsomes assessed as intrinsic clearance; assay type: ADME, Microsome; conditions: read-out: CLH

half-life [1]	CLint scaled [2]	Structure (SMILES)
16.9 min	53 mL/min/kg	CCc1ccc(NC(=O)Nc2c[nH]c3ccc(F)cc23)cc1
16.3 min	76.3 mL/min/kg	CC(C)(C)c1ccc(NC(=O)Nc2c[nH]c3ccc(F)cc23)cc1
41 min	21.7 mL/min/kg	O=C(Nc1ccc(C2CCC(F)(F)CC2)cc1)Nc1c[nH]c2ccc(F)cc12
